Source: patent publication US12612424B2, “HPK1 inhibitors and uses thereof” (Regor Pharmaceuticals, Inc., priority 2019, dated 2026)

Legend:
JAK3 = biological target: T1, JAK3 (Homo sapiens, UniProt P52333); experiment: JAK3 biochemical assay (ADP-GLO Kinase Assay); settings: for IC50: B*: testing performed in a first testing facility, read-out: JAK3 IC50 (nM) Relative, B*; for JAKs/HPK1 IC50 Ratio, B*: ratio of JAK3 IC50 to HPK1 IC50, first testing facility
T1 construct: purchased Thermo fisher PV3855
T1 sequence (P52333 781-1124 limits assumed): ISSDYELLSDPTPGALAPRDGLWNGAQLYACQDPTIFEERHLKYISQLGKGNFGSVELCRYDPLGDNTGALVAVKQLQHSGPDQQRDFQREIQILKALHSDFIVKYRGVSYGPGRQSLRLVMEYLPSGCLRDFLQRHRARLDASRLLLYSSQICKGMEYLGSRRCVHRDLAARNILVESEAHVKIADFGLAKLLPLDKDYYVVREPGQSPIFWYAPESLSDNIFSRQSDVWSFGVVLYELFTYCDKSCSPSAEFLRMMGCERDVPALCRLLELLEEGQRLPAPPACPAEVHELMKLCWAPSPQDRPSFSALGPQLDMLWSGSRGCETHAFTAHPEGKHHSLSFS
How it was run: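 Luminescent ADP-Glo readout after a 60 min, 25 °C reaction of JAK3 (0.78 ng) on Poly(E4Y1) (0.2 μg/μL) at 4 μM ATP, Tris pH 7.5 buffer with MgCl2, BSA and DTT. Compounds tested 10 μM down to 0.508 nM in 3-fold steps; % inhibition normalised to DMSO and reference-compound controls, IC50 from three-parameter fit.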

HPK1 = HPK1 (Homo sapiens, UniProt Q92918); experiment: HPK1 biochemical assay (ADP-GLO Kinase Assay); settings: B*: testing performed in a first testing facility; read-out: HPK1 IC50 (nM) Relative, B*
Chain of HPK1 (Q92918 whole entry): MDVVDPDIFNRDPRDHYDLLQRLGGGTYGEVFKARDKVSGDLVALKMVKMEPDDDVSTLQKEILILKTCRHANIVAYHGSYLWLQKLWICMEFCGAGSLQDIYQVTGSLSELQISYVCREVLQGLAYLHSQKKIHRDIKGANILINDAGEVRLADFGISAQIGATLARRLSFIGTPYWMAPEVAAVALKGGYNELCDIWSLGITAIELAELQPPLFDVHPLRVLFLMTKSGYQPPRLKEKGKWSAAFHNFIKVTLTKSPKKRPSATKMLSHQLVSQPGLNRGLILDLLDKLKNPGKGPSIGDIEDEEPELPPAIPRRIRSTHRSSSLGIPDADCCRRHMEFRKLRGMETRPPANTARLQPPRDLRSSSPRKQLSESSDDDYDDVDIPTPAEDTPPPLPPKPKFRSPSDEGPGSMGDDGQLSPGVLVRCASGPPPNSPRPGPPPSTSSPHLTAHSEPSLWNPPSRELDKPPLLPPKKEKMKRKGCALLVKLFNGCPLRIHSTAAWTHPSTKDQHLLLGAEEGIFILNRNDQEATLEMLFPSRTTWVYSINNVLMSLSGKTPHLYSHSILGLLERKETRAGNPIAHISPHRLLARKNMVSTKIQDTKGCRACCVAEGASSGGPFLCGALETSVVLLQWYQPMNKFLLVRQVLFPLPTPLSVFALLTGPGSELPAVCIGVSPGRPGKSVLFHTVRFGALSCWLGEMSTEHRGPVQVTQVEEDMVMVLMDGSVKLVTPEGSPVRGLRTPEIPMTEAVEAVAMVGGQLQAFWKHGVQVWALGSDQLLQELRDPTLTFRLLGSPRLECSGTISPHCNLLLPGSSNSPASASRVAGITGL
How it was run: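 HPK1 (0.6 ng/μL final) activity was followed with MBP substrate and 10 μM ATP in Tris pH 7.5/MgCl2/BSA/DTT buffer, measured by ADP-Glo luminescence. Compounds were tested as 3-fold dilutions from 10 μM. IC50 came from a three-parameter logistic fit, with inhibition normalised to high/low controls.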

IC50 (JAK3) | JAKs/HPK1 IC50 Ratio, B* (JAK3) | IC50 (HPK1) | SMILES
> 1000 nM | 476 | ≤ 100 nM | COC(=O)CC1(C)CN(c2nc(Nc3cc4c(cc3OC)CCN(C)C4)ncc2Cl)c2ccccc21 (stereo not drawn) [Example 145]
≤ 100 nM | 90 | ≤ 100 nM | COc1cc2c(cc1Nc1ncc(Cl)c(N3CC(C)(CC(=O)O)c4ccccc43)n1)CN(C)CC2 (stereo not drawn) [Example 146]
> 1000 nM | >944 | ≤ 100 nM | CCOC(=O)CC1(C)CN(c2nc(Nc3cc4c(cc3OC)CCN(C)C4)ncc2Cl)c2ccccc21 (stereo not drawn) [Example 149]
100 to 500 nM | 171 | ≤ 100 nM | COc1cc2c(cc1Nc1ncc(Cl)c(N3CC(C)(CC(=O)O)c4cc(F)ccc43)n1)CN(C)CC2 (stereo not drawn) [Example 150, 2-(1-(5-Chloro-2-((6-methoxy-2-methyl-1,2,3,4-tetrahydroisoquinolin-7-yl)amino)pyrimidin-4-yl)-5-fluoro-3-methylindolin-3-yl)acetic acid]
≤ 100 nM | 187 | ≤ 100 nM | COc1cc2c(cc1Nc1ncc(Cl)c(N3CC(C)(CC(=O)O)c4ccc(F)cc43)n1)CN(C)CC2 (stereo not drawn) [Example 151]
100 to 500 nM | 430 | ≤ 100 nM | COc1cc2c(cc1Nc1ncc(Cl)c(N3CC(C)(CC(=O)O)c4cc(F)c(F)cc43)n1)CN(C)CC2 (stereo not drawn) [Example 154]

More lines, now with the values behind:

SMILES | IC50 (JAK3) | JAKs/HPK1 IC50 Ratio, B* (JAK3) | IC50 (HPK1)
COc1cc2c(cc1Nc1ncc(Cl)c(-n3cc(CC(=O)OC(C)C)c4ccccc43)n1)CN(C)CC2 [Example 130, Isopropyl 2-(1-(5-chloro-2-((6-methoxy-2-methyl-1,2,3,4-tetrahydroisoquinolin-7-yl)amino)pyrimidin-4-yl)-1H-indol-3-yl)acetate] | > 1000 nM | >243 | ≤ 100 nM
COc1cc2c(cc1Nc1ncc(Cl)c(-n3cc(CC(N)=O)c4ccccc43)n1)CN(C)CC2 [Example 133] | > 1000 nM | 870 | ≤ 100 nM
COc1cc2c(cc1Nc1ncc(Cl)c(-n3cc(CC#N)c4ccccc43)n1)CN(C)CC2 [Example 134] | 500 to 1000 nM | 243 | ≤ 100 nM
COc1cc2c(cc1Nc1ncc(Cl)c(-n3cc(Cc4nn[nH]n4)c4ccccc43)n1)CN(C)CC2 [Example 135, N-(4-(3-((2H-tetrazol-5-yl)methyl)-1H-indol-1-yl)-5-chloropyrimidin-2-yl)-6-methoxy-2-methyl-1,2,3,4-tetrahydroisoquinolin-7-amine] | 500 to 1000 nM | 269 | ≤ 100 nM
CNC(=O)Cc1cn(-c2nc(Nc3cc4c(cc3OC)CCN(C)C4)ncc2Cl)c2ccccc12 [Example 136] | 500 to 1000 nM | 438 | ≤ 100 nM
COc1cc2c(cc1Nc1ncc(Cl)c(-n3cc(CC(=O)NCC#N)c4ccccc43)n1)CN(C)CC2 [Example 137] | > 1000 nM | 1304 | ≤ 100 nM
COc1cc2c(cc1Nc1ncc(Cl)c(-n3cc(CC(=O)O)c4cc(F)ccc43)n1)CN(C)CC2 [Example 138] | 100 to 500 nM | 382 | ≤ 100 nM
COc1cc2c(cc1Nc1ncc(Cl)c(-n3cc(CC(=O)O)c4ccc(F)cc43)n1)CN(C)CC2 [Example 139] | 100 to 500 nM | 520 | ≤ 100 nM
COc1cc2c(cc1Nc1ncc(Cl)c(-n3cc(CC(=O)O)c4cc(F)c(F)cc43)n1)CN(C)CC2 [Example 140] | 500 to 1000 nM | 783 | ≤ 100 nM
COc1cc2c(cc1Nc1ncc(Cl)c(-n3nc(CC(=O)O)c4ccccc43)n1)CN(C)CC2 [Example 141] | > 1000 nM | 541 | ≤ 100 nM
COc1cc2c(cc1Nc1ncc(Cl)c(-n3cc(C(C)C(=O)O)c4ccccc43)n1)CN(C)CC2 (stereo not drawn) [Example 142] | 500 to 1000 nM | 117 | ≤ 100 nM
